Results taken from US20260347310A1, “PHENALKYLAMINES AND METHODS OF MAKING AND USING THE SAME” (GILGAMESH PHARMACEUTICALS, INC., priority 2022, published 2026).
pEC50, pKi: −log10 of the molar value. Entries after “also recorded” stand apart in the source; their conditions may differ.

Tests used:
5-HT2A receptor [1] = target: T1, 5-HT2A receptor (Homo sapiens, UniProt P28223); test: FLIPR Ca2+ flux functional agonist assay at 5-HT2A; assay type: cell-based; design: expressed in transfected cells; host or cells: HEK293; conditions: for agonist activity at 5-HT2A (in words): potency or efficacy; for Emax: HEK293, read-out: 5-HT2A % Act @ Max Dose
T1 sequence (P28223 whole entry): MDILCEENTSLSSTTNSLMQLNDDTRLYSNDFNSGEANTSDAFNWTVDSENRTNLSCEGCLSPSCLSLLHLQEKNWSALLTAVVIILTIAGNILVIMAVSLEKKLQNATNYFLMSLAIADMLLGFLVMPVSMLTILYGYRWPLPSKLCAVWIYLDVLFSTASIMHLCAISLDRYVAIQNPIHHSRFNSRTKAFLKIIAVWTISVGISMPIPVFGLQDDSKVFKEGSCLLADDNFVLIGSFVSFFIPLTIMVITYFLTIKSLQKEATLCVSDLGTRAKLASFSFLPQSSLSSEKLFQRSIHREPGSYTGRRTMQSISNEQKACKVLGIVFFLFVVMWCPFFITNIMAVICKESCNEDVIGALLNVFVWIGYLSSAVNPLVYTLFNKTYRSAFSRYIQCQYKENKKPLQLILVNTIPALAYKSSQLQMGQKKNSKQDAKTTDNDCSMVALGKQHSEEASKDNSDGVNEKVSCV
Experimental: (§1) Disclosed compounds were tested for agonist activity at several serotonin receptor subtypes (5-HT2A, […], and 5-HT2C) using Ca^2+ flux functional assays, with the results summarized in Table 9.
(§2) Test Compounds. Compounds were prepared as described above.
(§3) Functional Assays at 5-HT2A and 5-HT2B. Agonist activity at 5-HT2A and 5-HT2B receptors was determined using a FLIPR Ca^2+ flux assay at WuXi AppTec (Hong Kong) Limited according to their standard protocols. Briefly, stably transfected cells expressing the receptor of interest (HEK293 for both 5-HT2A and 5-HT2B) were grown and plated in a 384-well plate and incubated at 37° C. and 5% CO2 overnight. A solution of 250 mM probenecid in 1 mL FLIPR assay buffer was prepared fresh. This was combined with a fluorescent dye (Fluo-4 Direct™) to make a final assay concentration of 2.5 mM. Compounds were diluted 1:3.16 for 10 points and 750 nL was added to a 384 well compound plate using ECHO along with 30 μL assay buffer. The fluorescent dye was then added to the assay plate along with assay buffer to a final volume of 40 μL. The cell plate was incubated for 50 min at 37° C. and 5% CO2 and placed into the FLIPR Tetra along with the compound plate. 10 μL of references and compounds were then transferred from the compound plate into the cell plate and the fluorescent signal was read.

5-HT2C receptor = target: T2, 5-HT2C receptor (Homo sapiens, UniProt P28335); test: Radioligand binding at 5-HT2C ([3H]mesulergine)
T2 sequence (P28335 33-458): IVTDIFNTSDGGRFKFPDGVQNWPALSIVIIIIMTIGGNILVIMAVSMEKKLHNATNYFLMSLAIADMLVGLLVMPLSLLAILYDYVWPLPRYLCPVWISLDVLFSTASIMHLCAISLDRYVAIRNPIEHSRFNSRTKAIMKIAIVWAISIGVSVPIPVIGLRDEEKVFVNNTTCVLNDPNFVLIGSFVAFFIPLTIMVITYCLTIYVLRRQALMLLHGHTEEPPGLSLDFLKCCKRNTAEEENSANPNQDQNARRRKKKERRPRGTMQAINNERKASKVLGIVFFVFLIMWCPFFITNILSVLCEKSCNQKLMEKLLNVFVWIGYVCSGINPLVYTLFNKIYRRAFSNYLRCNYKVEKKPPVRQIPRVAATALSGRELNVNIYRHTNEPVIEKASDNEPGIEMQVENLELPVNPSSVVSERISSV
Experimental: (§4) The binding affinities of disclosed compounds at the ketanserin binding site of the 5-HT2A receptor, the LSD binding site of the 5-HT2B receptor, and the mesulergine binding site of the 5-HT2C receptor were determined in radioligand binding experiments.
(§5) Method. The affinity of the test compounds for 5-HT2A, 5-HT2B, and 5-HT2C receptors was determined in radioligand binding experiments with [^3H]ketanserin, [^3H]LSD, and [^3H]mesulergine, respectively, by WuXi AppTec (Hong Kong) Limited, using methods adapted from the literature and under conditions described in Table 7.

[2] = Metabolic stability in human liver microsomes (HLM); assay type: in vitro ADME; conditions: for stability in HLM (in words): 1 μM, 0.50 mg protein/mL, 1 mM NADPH, 37 °C, 60 min; for half-life at 1 µM / microsomal CLint at 1 µM: human liver microsomes 0.50 mg/mL, NADPH 1 mM, test compound 1 μM, 37° C., pH 7.4, 60 min
Experimental: as §2
(§6) HLM Stability. Pooled HLM from adult male and female donors (Corning 452117) were used. Microsomal incubations were carried out in multi-well plates. Liver microsomal incubation medium consisted of PBS (100 mM, pH 7.4), MgCl2 (1 mM), and NADPH (1 mM), with 0.50 mg of liver microsomal protein per mL. Control incubations were performed by replacing the NADPH-cofactor system with PBS. Test compounds (1 μM, final solvent concentration 1.0%) were incubated with microsomes at 37° C. with constant shaking. Six time points over 60 minutes were analyzed, with 60 μL aliquots of the reaction mixture being drawn at each time point. The reaction aliquots were stopped by adding 180 μL of cold (4° C.) acetonitrile containing 200 ng/mL tolbutamide and 200 ng/mL labetalol as internal standards (IS), followed by shaking for 10 minutes, and then protein sedimentation by centrifugation at 4,000 rpm for 20 minutes at 4° C. Supernatant samples (80 μL) were diluted with water (240 μL) and analyzed for parent compound remaining using a fit-for-purpose liquid chromatography-tandem mass spectrometry (LC-MS/MS) method.
(§7) Data Analysis. The elimination constant (kel), half-life (t1/2), and intrinsic clearance (CLint) were determined in a plot of […] versus time, using linear regression analysis.

5-HT2B receptor = target: T3, 5-HT2B receptor (Homo sapiens, UniProt P41595); test: FLIPR Ca2+ flux functional agonist assay at 5-HT2B; assay type: cell-based; conditions: for Emax: agonist activity, FLIPR Ca2+ flux, HEK293, at max dose, read-out: 5-HT2B % Act @ Max Dose
T3 construct: expressed in transfected cells; host or cells: HEK293
T3 sequence (P41595 whole entry): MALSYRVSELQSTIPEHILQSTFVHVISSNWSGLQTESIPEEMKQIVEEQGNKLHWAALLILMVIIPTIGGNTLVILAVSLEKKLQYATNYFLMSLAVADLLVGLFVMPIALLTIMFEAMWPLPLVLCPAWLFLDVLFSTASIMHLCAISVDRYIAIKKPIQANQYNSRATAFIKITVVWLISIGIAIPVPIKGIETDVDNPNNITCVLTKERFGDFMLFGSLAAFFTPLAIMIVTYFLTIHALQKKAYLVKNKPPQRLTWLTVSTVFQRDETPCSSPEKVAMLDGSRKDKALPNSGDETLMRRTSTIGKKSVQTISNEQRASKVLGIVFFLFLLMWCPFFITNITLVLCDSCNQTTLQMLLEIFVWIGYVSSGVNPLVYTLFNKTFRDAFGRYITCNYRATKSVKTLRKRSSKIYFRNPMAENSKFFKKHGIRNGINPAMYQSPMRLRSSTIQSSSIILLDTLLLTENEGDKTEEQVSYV
Experimental: as §1, §2, §3

[3] = Metabolic stability in dog liver microsomes (DLM); assay type: in vitro ADME, Beagle dogs; conditions: for stability in DLM (in words): 1 μM, 0.50 mg protein/mL, 1 mM NADPH, 37 °C, 60 min; for half-life at 1 µM / microsomal CLint at 1 µM: dog liver microsomes 0.50 mg/mL, NADPH 1 mM, test compound 1 μM, 37° C., pH 7.4, 60 min
Experimental: as §2
as §6, with “DLM” for “HLM”, “Beagle dogs (Xenotech D1000)” for “and female donors (Corning 452117)”
as §7

5-HT2A receptor [4] = target: T1, 5-HT2A receptor; test: Radioligand binding at 5-HT2A ([3H]ketanserin); design: expressed in transfected cells
Experimental: as §4, §5

| Structure (SMILES) | pEC50 (5-HT2A receptor [1]) | agonist activity at 5-HT2A (in words) (5-HT2A receptor [1]; Ca2+ flux) | Emax (5-HT2A receptor [1]) | pKi (5-HT2C receptor) | selectivity for 5-HT2A over 5-HT2C (in words) (5-HT2C receptor; Ki at 5-HT2C vs Ki at 5-HT2A) | stability in HLM (in words) [2] | half-life at 1 µM [2] | microsomal CLint at 1 µM [2] | pEC50 (5-HT2B receptor) | Emax (5-HT2B receptor) | stability in DLM (in words) [3] | half-life at 1 µM [3] | microsomal CLint at 1 µM [3] | pKi (5-HT2A receptor [4]) | binding at 5-HT2A receptors (in words) (5-HT2A receptor [4]; [3H]ketanserin) | fold more potent at 5-HT2A (5-HT2A receptor [1]; 1R compared to 1S, Ca2+ flux) | fold lower affinity at 5-HT2C (5-HT2C receptor; 1R compared to 1S) | CLint and half-life in HLM (in words) ([2]; 1R versus 1S) | CLint and half-life in DLM (in words) ([3]; 1R versus 1S) | selectivity for 5-HT2A (in words) (5-HT2A receptor [4]; 1R, over 5-HT2B and 5-HT2C, compared to 1S) |
| --- | --- | --- | --- | --- | --- | --- | --- | --- | --- | --- | --- | --- | --- | --- | --- | --- | --- | --- | --- | --- |
| CCC(N)Cc1cc(OC)c(CCCCCC(F)(F)F)cc1OC (racemic) [Compound 2a, 1-(2,5-dimethoxy-4-(6,6,6-trifluorohexyl)phenyl)butan-2-amine] | 6.81 | substantially less potent than 1R and 1S in the 5-HT2A FLIPR assay; also recorded: substantially lower efficacy than 1R or 1S | 36.2% | 7.21 | even higher selectivity than 1R for 5-HT2A over 5-HT2C | significantly higher stability compared to 1R and 1S | > 145 min | < 9.6 µL/min/mg | < 5.00 | 4.85% | significantly higher stability compared to 1R and 1S | 71.3 min | 19.4 µL/min/mg | 8.27 | potent ligands for 5-HT2A | – | – | – | – | – |
| CCCCCCc1cc(OC)c(C[C@H](N)CC)cc1OC [Compound 1R, (R)-1-(4-hexyl-2,5-dimethoxyphenyl)butan-2-amine] | 7.64 | Efficacy at 5-HT2A was also greater for 1R compared to 1S | 76.8% | 7.74 | – | substantially more stable than 1S | 37.5 min | 37 µL/min/mg | < 5.00 | 14.8% | substantially less stable than 1S | 11.3 min | 122 µL/min/mg | 8.46 | – | ~ 2 fold | ~ 7 fold | lower CLint and longer half-life | higher CLint and shorter half-life | greater selectivity for 5-HT2A |
| CCCCCCc1cc(OC)c(C[C@@H](N)CC)cc1OC [Compound 1S, (S)-1-(4-hexyl-2,5-dimethoxyphenyl)butan-2-amine] | 7.36 | – | 59.7% | 8.57 | – | – | 19.7 min | 70.2 µL/min/mg | < 5.00 | 16.1% | – | 22.9 min | 60.4 µL/min/mg | 8.48 | – | – | – | – | – | – |
